For one series, the target named is T1, hERG channel (Homo sapiens, UniProt Q12809).
T1 construct: expressed in transfected cells; host or cells: CHO (Chinese hamster ovary)
Kind of series: hERG channel inhibition assay (patch-clamp, CHOhERG cells). The settings on record: for IC20: human, CHO cells stably expressing hERG (CHOhERG); for IC20 / IC50: patch-clamp, CHOhERG cells; for hERG IC20/TLR7 IC50 / hERG IC20/TLR8 IC50 / hERG IC20/TLR9 IC50: safety ratio. In kind it is cell-based. On the procedure:
hERG Channel Inhibition Assay:
The hERG K^+ channels were cloned in humans and stably expressed in a CHO (Chinese hamster ovary) cell line. CHOhERG cells were used for patch-clamp (voltage-clamp, whole-cell) experiments. Cells were stimulated by a voltage pattern to activate hERG channels and conduct IKhERG currents (rapid delayed outward rectifier potassium current of the hERG channel). After the cells were stabilized for a few minutes, the amplitude and kinetics of IKhERG were recorded at a stimulation frequency of 0.1 Hz, (6 bpm). Thereafter, the test compound was added to the preparation at increasing concentrations. For each concentration, an attempt was made to reach a steady-state effect, usually, this was achieved within 3-10 min at which time the next highest concentration was applied. The amplitude and kinetics of IKhERG are recorded in each concentration of the drug which were compared to the control values (taken as 100%). (references: Redfern W S, Carlsson L, Davis A S, Lynch W G, MacKenzie I, Palethorpe S, Siegl P K, Strang I, Sullivan A T, Wallis R, Camm A J, Hammond T G. 2003; Relationships between preclinical cardiac electrophysiology, clinical QT interval prolongation and torsade de pointes for a broad range of drugs: evidence for a provisional safety margin in drug development. Cardiovasc. Res. 58:32-45, Sanguinetti M C, Tristani-Firouzi M. 2006; hERG potassium channels and cardiac arrhythmia. Nature 440:463-469, Webster R, Leishman D, Walker D. 2002; Towards a drug concentration effect relationship for QT prolongation and torsades de pointes. Curr. Opin. Drug Discov. Devel. 5:116-26).
In general terms: Block of hERG is tested as a sign of cardiac risk.

Another series deals with T2, CYP2C9 (Homo sapiens, UniProt P11712).
T2 construct: tissue BD-Gentest 452117; host or cells: human liver microsomes
T2 sequence (P11712 whole entry): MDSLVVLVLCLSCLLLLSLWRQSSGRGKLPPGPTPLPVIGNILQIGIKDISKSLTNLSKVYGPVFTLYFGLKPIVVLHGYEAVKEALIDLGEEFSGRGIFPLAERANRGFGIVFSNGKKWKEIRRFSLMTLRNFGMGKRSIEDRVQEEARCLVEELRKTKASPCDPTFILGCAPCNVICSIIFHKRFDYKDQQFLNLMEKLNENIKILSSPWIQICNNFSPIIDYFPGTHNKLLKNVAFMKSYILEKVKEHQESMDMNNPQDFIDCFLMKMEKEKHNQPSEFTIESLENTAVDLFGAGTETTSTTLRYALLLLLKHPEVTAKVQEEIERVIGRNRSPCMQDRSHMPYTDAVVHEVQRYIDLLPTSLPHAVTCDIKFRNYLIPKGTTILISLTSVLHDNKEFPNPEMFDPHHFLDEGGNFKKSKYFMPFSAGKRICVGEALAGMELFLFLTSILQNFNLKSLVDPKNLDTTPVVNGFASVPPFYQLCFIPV
Kind of series: CYP inhibition assay in human liver microsome, CYP2C9. Format: in vitro ADME. The conditions noted are these: human, human liver microsomes, probe diclofenac 5 μM, substrate diclofenac 5 μM, first value of 2C9/2D6/3A4. How it is done:
This is a high throughput screening assay used for assessment of reversible inhibition of CYP2C9, CYP2D6, and CYP3A4 activity of test compounds in human liver microsome (HLM) in early discovery stage.
10 mM DMSO stock solutions of test compounds were diluted in DMSO to generate 2 mM intermediate stock solution. 250 nL, of intermediate stock solution were transferred in duplicate into 3 separate 384 well microtitre plates (assay-ready plates). A mixture of HLM and each substrate was made up. 45 μL of HLM substrate mix was then transferred to each well of an assay ready plate and mixed. The negative (solvent) and positive controls (standard inhibitor for each CYP) were included in each assay ready plate. The assay ready plate was warmed to 37° C. in an incubator over 10 minutes. 5 μL pre-warmed NADPH regenerating system was added to each incubation well to start the reaction. Final incubation volume was 50 μL. The assay plate then was placed back in the 37° C. incubator. After incubation (10 minutes for CYP2D6) for 5 minutes, incubates were quenched by addition of 50 μL 100% acetonitrile containing internal standards (400 ng/mL 13C6-4′-OH-Diclofenac, 20 ng/mL D3-Dextrorphan and 20 ng/mL D4-1′OH-Midazolam). The supernatants were collected for RapidFire/MS/MS analysis.
RapidFire online solid phase extraction/sample injection system (Agilent) coupled with API4000 triple quadrupole mass spectrometer (AB Sciex) were used for sample analysis. The mobile phase composed of acetonitrile and water supplemented with 0.1% formic acid. A C4 solid phase extraction cartridge is used for sample separation. MS detection is achieved in positive ion MRM mode.
Peak areas for substrate, metabolite and internal standard are determined using the RapidFire integrator software (version 3.6.12009.12296). Peak area ratios (PAR) of metabolite and internal standard (stable-labelled metabolite) are then calculated. The measurement window for each experiment is then defined:
PAR (0% activity)=average PAR for all incubations containing concentrated inhibitor; Par (100% activity)=average PAR for all incubations containing no inhibitor (DMSO controls); % Activity (test inhibitor)=[PAR (test inhibitor)−PAR (0% activity)]/[PAR (100% activity)−PAR (0% activity)]; % Inhibition (test inhibitor)=100-% Activity (test inhibitor).
Background: Liver microsomes are a subcellular fraction often used to study metabolism.

T1 sequence (Q12809 whole entry): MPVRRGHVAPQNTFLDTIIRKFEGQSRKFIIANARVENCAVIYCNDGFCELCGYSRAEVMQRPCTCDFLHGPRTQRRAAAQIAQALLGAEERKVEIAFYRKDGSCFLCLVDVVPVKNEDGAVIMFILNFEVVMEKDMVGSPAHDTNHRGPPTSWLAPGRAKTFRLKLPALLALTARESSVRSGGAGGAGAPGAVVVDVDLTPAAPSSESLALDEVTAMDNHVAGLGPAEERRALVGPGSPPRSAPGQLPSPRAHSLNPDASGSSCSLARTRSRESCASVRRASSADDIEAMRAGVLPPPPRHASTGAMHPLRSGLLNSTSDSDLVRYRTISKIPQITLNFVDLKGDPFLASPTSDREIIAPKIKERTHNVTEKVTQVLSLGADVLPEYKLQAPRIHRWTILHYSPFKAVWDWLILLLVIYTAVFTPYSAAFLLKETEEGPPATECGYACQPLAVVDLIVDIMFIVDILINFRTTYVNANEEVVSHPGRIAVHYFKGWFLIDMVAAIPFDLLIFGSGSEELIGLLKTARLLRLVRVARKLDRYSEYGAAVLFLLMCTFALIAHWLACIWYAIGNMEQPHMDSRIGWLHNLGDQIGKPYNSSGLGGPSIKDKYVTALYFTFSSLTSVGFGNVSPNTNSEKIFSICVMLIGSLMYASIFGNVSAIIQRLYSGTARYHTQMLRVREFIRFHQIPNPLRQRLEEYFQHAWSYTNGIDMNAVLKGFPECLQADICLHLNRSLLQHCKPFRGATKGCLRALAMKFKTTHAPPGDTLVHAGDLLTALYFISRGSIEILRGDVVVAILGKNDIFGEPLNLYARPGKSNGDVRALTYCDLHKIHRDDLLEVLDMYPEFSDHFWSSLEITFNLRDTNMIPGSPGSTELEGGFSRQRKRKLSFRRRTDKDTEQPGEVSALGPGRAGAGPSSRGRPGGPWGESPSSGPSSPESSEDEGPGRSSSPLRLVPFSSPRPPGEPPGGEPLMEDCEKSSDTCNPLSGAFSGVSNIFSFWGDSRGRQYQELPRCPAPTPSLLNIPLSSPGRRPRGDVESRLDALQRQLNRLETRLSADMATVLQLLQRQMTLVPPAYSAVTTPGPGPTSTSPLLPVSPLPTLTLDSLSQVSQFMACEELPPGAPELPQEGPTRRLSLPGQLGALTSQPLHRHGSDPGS

Regarding `CO[C@H]1CN(c2nccc(N3CCN(C[C@H]4CN(c5ccc(C#N)c6nccnc56)C[C@@H](C)O4)CC3)n2)C[C@@H]1N` [Example 99, 8-[(2S,6R)-2-[[4-[2-[(3S,4S)-3-amino-4-methoxy-pyrrolidin-1-yl]pyrimidin-4-yl]piperazin-1-yl]methyl]-6-methyl-morpholin-4-yl]quinoxaline-5-carbonitrile], at hERG channel, the IC20 was 9 µM, the IC50 was above 20 µM, the “hERG IC20/TLR7 IC50” value was 818 and the “hERG IC20/TLR8 IC50” value was 9000. Moreover, the “hERG IC20/TLR9 IC50” value at hERG channel turned out to be 142.

In the case of `CO[C@@H]1CN(c2nccc(N3CCN(C[C@H]4CN(c5ccc(C#N)c6nccnc56)C[C@@H](C)O4)CC3)n2)C[C@H]1N` [Example 98, 8-[(2S,6R)-2-[[4-[2-[(3R,4R)-3-amino-4-methoxy-pyrrolidin-1-yl]pyrimidin-4-yl]piperazin-1-yl]methyl]-6-methyl-morpholin-4-yl]quinoxaline-5-carbonitrile], at hERG channel, the IC20 is above 10 µM, the IC50 was above 20 µM, the “hERG IC20/TLR7 IC50” value is on record as above 1666 and the “hERG IC20/TLR8 IC50” value is listed as above 10000. Also, the “hERG IC20/TLR9 IC50” value at hERG channel is on record as above 204.

For the compound `Cc1cc(N2CCN(C[C@H]3CN(c4ccc(C#N)c5nccnc45)C[C@@H](C)O3)CC2)nc(N2CC(N)C2)n1` [Example 112, 8-[(2S,6R)-2-[[4-[2-(3-aminoazetidin-1-yl)-6-methyl-pyrimidin-4-yl]piperazin-1-yl]methyl]-6-methyl-morpholin-4-yl]quinoxaline-5-carbonitrile], at CYP2C9, the inhibition at 5 min, 10 µM came out at 0.5%.

For the compound `[2H]c1ccc2c(N3C[C@H](CN4CCN(c5nc(C)cc(N6C[C@H](OC)[C@@H](N)C6)n5)CC4)O[C@H](C)C3)ccc(C#N)c2n1` [Example 134, 5-[(2S,6R)-2-[[4-[4-[(3S,4S)-3-amino-4-methoxy-pyrrolidin-1-yl]-6-methyl-pyrimidin-2-yl]piperazin-1-yl]methyl]-6-methyl-morpholin-4-yl]-2-deuterio-quinoline-8-carbonitrile], the inhibition at 5 min, 10 µM against CYP2C9 was determined as 44.5%.

As to `C[C@@H]1CN(c2ccc(C#N)c3ncccc23)C[C@H](CN2CCC(c3cccc(C4CCNCC4)c3)CC2)O1` [Example 2, 5-[(2R,6S)-2-methyl-6-[[4-[3-(4-piperidyl)phenyl]-1-piperidyl]methyl]morpholin-4-yl]quinoline-8-carbonitrile], the inhibition at 5 min, 10 µM at CYP2C9 was 2%.

Consider `[2H]c1ccc2c(N3C[C@H](CN4CCN(c5ccc(N6CC7(CNCCO7)C6)nc5)CC4)O[C@H](C)C3)ccc(C#N)c2n1` [Example 152, 2-deuterio-5-[(2R,6S)-2-methyl-6-[[4-[6-(5-oxa-2,8-diazaspiro[3.5]nonan-2-yl)-3-pyridyl]piperazin-1-yl]methyl]morpholin-4-yl]quinoline-8-carbonitrile], for which the inhibition at 5 min, 10 µM at CYP2C9 is -1%.

For `C[C@@H]1CN(c2ccc(C#N)n3ncc(F)c23)C[C@H](CN2CC(c3ccc(N4CC(C)(N)C4)nc3)C2)O1` [Example 158, 4-[(2S,6R)-2-[[3-[6-(3-amino-3-methyl-azetidin-1-yl)-3-pyridyl]azetidin-1-yl]methyl]-6-methyl-morpholin-4-yl]-3-fluoro-pyrazolo[1,5-a]pyridine-7-carbonitrile], at CYP2C9, the inhibition at 5 min, 10 µM is -5.5%.

`C[C@@H]1CN(c2ccc(C#N)n3nccc23)C[C@H](CN2CC(c3ccc(N4CC(C)(N)C4)cc3)C2)O1` [Example 163, 4-[(2S,6R)-2-[[3-[4-(3-amino-3-methyl-azetidin-1-yl)phenyl]azetidin-1-yl]methyl]-6-methyl-morpholin-4-yl]pyrazolo[1,5-a]pyridine-7-carbonitrile]: at CYP2C9, the inhibition at 5 min, 10 µM was -4.5%.

Regarding `C[C@@H]1CN(c2ccc(C#N)n3ncc(F)c23)C[C@H](CN2CC(c3ccc(N4C[C@@H]5C[C@H]4CN5)nc3)C2)O1` [Example 165, 4-[(2S,6R)-2-[[3-[6-[(1S,4S)-2,5-diazabicyclo[2.2.1]heptan-2-yl]-3-pyridyl]azetidin-1-yl]methyl]-6-methyl-morpholin-4-yl]-3-fluoro-pyrazolo[1,5-a]pyridine-7-carbonitrile], the inhibition at 5 min, 10 µM on CYP2C9 was -8.5%.

In the case of `CO[C@@H]1CN(c2ccc(C3CN(C[C@H]4CN(c5ccc(C#N)n6ncc(F)c56)C[C@@H](C)O4)C3)cn2)C[C@H]1N` [Example 164, 4-[(2S,6R)-2-[[3-[6-[(3R,4R)-3-amino-4-methoxy-pyrrolidin-1-yl]-3-pyridyl]azetidin-1-yl]methyl]-6-methyl-morpholin-4-yl]-3-fluoro-pyrazolo[1,5-a]pyridine-7-carbonitrile], the inhibition at 5 min, 10 µM on CYP2C9 was -1%.

Regarding `Cc1ccc(N2C[C@H](CN3CCN(c4ccnc(N5CCNCC5)n4)CC3)O[C@H](C)C2)c2nccnc12` [Example 117, (2R,6S)-2-methyl-4-(8-methylquinoxalin-5-yl)-6-[[4-(2-piperazin-1-ylpyrimidin-4-yl)piperazin-1-yl]methyl]morpholine], the inhibition at 5 min, 10 µM on CYP2C9 worked out at 8.5%.

Turning to `Cc1ccc(N2C[C@H](CN3CCN(c4nccc(N5CCNCC5)n4)CC3)O[C@H](C)C2)c2nccnc12` [Example 116, (2R,6S)-2-methyl-4-(8-methylquinoxalin-5-yl)-6-[[4-(4-piperazin-1-ylpyrimidin-2-yl)piperazin-1-yl]methyl]morpholine], on CYP2C9, the inhibition at 5 min, 10 µM is -8.5%.

Consider `C[C@@H]1CN(c2ccc(C#N)c3ncccc23)C[C@H](CN2CC(c3cccc(N4CCNCC4)c3)C2)O1` [Example 4, 5-[(2R,6S)-2-methyl-6-[[3-(3-piperazin-1-ylphenyl)azetidin-1-yl]methyl]morpholin-4-yl]quinoline-8-carbonitrile], for which, on CYP2C9, the inhibition at 5 min, 10 µM came out at 5.5%.

With `[2H]c1ccc2c(N3C[C@H](CN4CCN(c5nc(C)cc(N6C[C@@H](N)[C@H](OC)C6)n5)CC4)O[C@H](C)C3)ccc(C#N)c2n1` [Example 144, 5-[(2S,6R)-2-[[4-[4-[(3R,4R)-3-amino-4-methoxy-pyrrolidin-1-yl]-6-methyl-pyrimidin-2-yl]piperazin-1-yl]methyl]-6-methyl-morpholin-4-yl]-2-deuterio-quinoline-8-carbonitrile], on hERG channel, the IC20 was above 10 µM, the IC50 is above 20 µM, the “hERG IC20/TLR7 IC50” value was above 909 and the “hERG IC20/TLR8 IC50” value is recorded as above 10000. For the same compound, the “hERG IC20/TLR9 IC50” value at hERG channel is above 322.

`C[C@@H]1CN(c2ccc(C#N)n3ncc(F)c23)C[C@H](CN2CC(c3ccc(N4CC(C)(N)C4)cc3)C2)O1` [Example 160, 4-[(2S,6R)-2-[[3-[4-(3-amino-3-methyl-azetidin-1-yl)phenyl]azetidin-1-yl]methyl]-6-methyl-morpholin-4-yl]-3-fluoro-pyrazolo[1,5-a]pyridine-7-carbonitrile]: the inhibition at 5 min, 10 µM against CYP2C9 was -1.5%.

With `C[C@@H]1CN(c2ccc(C#N)c3nccnc23)C[C@H](CN2CCN(c3nccc(N4CC(N)C4)n3)CC2)O1` [Example 118, 8-[(2S,6R)-2-[[4-[4-(3-aminoazetidin-1-yl)pyrimidin-2-yl]piperazin-1-yl]methyl]-6-methyl-morpholin-4-yl]quinoxaline-5-carbonitrile], at hERG channel, the IC20 is above 10 µM, the IC50 was above 20 µM, the “hERG IC20/TLR7 IC50” value was above 2500 and the “hERG IC20/TLR8 IC50” value is on record as above 10000. Also, the “hERG IC20/TLR9 IC50” value at hERG channel is reported as above 196.

By IC20 is commonly meant the point of the concentration-response curve where the effect stands at 20%. Broadly, the IC50 is the concentration that gives 50% inhibition. Lower therefore signals greater potency. What is called inhibition is the change of the read-out against control, counted positive when it falls.

For the origin of these results see patent US20210395239A1 (Hoffmann-La Roche Inc., priority 2018, published 2021).
